The values below come from patent US6407142B1, “Use of stilbene derivatives substituted in position 3 as deodorant active agents in cosmetic compositions” (L'Oreal S.A., priority 1999, dated 2002).

Converted amounts (≈) assume the structure as drawn. Like-named read-outs stand apart in the source and are kept apart here.

One may read the MIC as the smallest concentration in the dilution series that meets the test's criterion for growth inhibition.

A short description of data set [1]: In vitro test of inhibition of the evolution of odors on natural sweat (olfactory evaluation by jury of experts). Also on record: species or system human. Particulars: for average % of reduction in the unpleasantness of the odor (T18 h, T24 h) / average % of reduction in the odor intensity (T18 h, T24 h): 37° C.; for average % of reduction in the unpleasantness of the odor (T18 h, T24 h): hedonistic grade relative to control sweat; for average % of reduction in the odor intensity (T18 h, T24 h): relative to control sweat without deodorant agent; for deodorant efficacy (reduction in the intensity and unpleasantness of the odor), in words: natural sweat, for at least 24 h. On the procedure: A test of inhibition of the evolution of odors was carried out on natural sweat. This test is carried out by adding the deodorant agent to fresh sweat, and then in carrying out an olfactory evaluation by means of a jury of experts after incubation at 37° C. for 18 hours and 24 hours. Thus, underarm sweat was collected in a sauna from several human models and combined to form a sample of sweat. In order to obtain the characteristic nauseating odor of sweat, before introducing the active substance, this sample of sweat was incubated for 18 hours at a temperature of 37° C. […] The active substance was then introduced into each of the flasks to be tested.
1) After incubation for 18 hours, the odor of each flask was evaluated.
The odor was evaluated on the basis of 2 criteria:
(a)—overall intensity (grading from 0 to 4):
(b)—the hedonistic assessment (grading from 0 to 6):
2) The flasks were reincubated in an oven at 37° C. for 6 h, the total desired incubation time being 24 h. Evaluation of the odor of each flask was then repeated as before.

In data set [2] the test system is Aspergillus niger. Nature of the data set: Microbiostatic activity (MIC) by dilutions in agar medium. The data set is classed as cell-based. The method, then:
(§1) Each of the 3 compounds was presented in the form of an ethanolic solution. 100 μl of the ethanolic solution were added to 1.9 ml of agar culture heated beyond the melting point to 45° C. (medium chosen as a function of the nutrient requirements of the test strain). After stirring with a Vortex machine, successive dilutions, in geometrical progression by a factor of 2, of the solution obtained were carried out using agar culture medium heated beyond its melting point to 45° C. 1 ml of each dilution was introduced into the wells of a microplate (flask, 24 wells). Four μl of microbial suspension were placed at the surface of the agar medium. Two control wells were also prepared: 100 μl H2O+1.9 ml of culture medium (growth control), […] ethanol+1.9 ml of culture medium (control of non-toxicity of the ethanol diluted to 1/20).
(§2) After incubation under conditions (temperature, atmosphere and duration) dependent on the test strain, the minimum inhibitory concentration (MIC) was given by the lowest concentration of product which inhibited the microbial growth. The results, shown below, are expressed in μg/ml.
(§3) For the control cupules (H2O or ethanol), the observation of microbial growth made it possible to exclude the presence of a placebo effect.

Data set [3] deals with Corynebacterium xerosis. The data set is described as above. Type of data set: cell-based. Particulars: for MIC: Corynebacterium xerosis. The method, then: as §1, §2, §3
The test system of data set [4] is Pityrosporum ovale. The data set is described as above. The data set is classed as cell-based. The settings on record: Malassezia furfur. The method, then:
as §1, §2, §3

Data set [5] relates to Propionibacterium acnes. Described as above. The settings on record: Cutibacterium acnes. The data set is classed as cell-based. On the procedure: as §1, §2, §3
Data set [6] has as its system Staphylococcus aureus. Described as above. The data set is classed as cell-based. The method, then: as §1, §2, §3
Data set [7] has as its system Staphylococcus epidermis. The data set is described as above. The data set is classed as cell-based. On the procedure:
as §1, §2, §3

For data set [8] the following is noted: cited from earlier work.
The mark [9] stands for this setting: Pityrosporum ovale, agar dilution, read-out: MIC.
The mark [10] stands for this setting: Propionibacterium acnes, agar dilution, read-out: MIC.
The mark [11] stands for this setting: Staphylococcus epidermis, agar dilution, read-out: MIC.

Consider `Oc1cc(Cl)ccc1Oc1ccc(Cl)cc1Cl` [Triclosan, 2,4,4′-trichloro-2′-hydroxydiphenyl ether], for which the “average % of reduction in the unpleasantness of the odor (T18 h, T24 h)” value in data set [1] (1 mg/ml of sweat) and in data set [1] (2 mg/ml of sweat) was −26% each time. Further, the “average % of reduction in the odor intensity (T18 h, T24 h)” value in data set [1] (1 mg/ml of sweat) and in data set [1] (2 mg/ml of sweat) was −64% each time. Besides, the MIC was 18.1 µg/mL (≈ 62.5 µM) in data set [2]; 2.3 µg/mL (≈ 7.94 µM) in data set [3]; above 144 µg/mL in data set [4]; 2.3 µg/mL (≈ 7.94 µM) in data set [5]; 0.1 µg/mL (≈ 0.345 µM) in data set [6]; 2.3 µg/mL (≈ 7.94 µM) in data set [7] (Staphylococcus). Further, the “solubility in water, in words” value in data set [8] is on record as “insoluble”.
Regarding `Oc1cc(O)cc(C=Cc2ccccc2)c1` [Pinosylvine, 3,5-dihydroxystilbene], the results for the “average % of reduction in the unpleasantness of the odor (T18 h, T24 h)” value in data set [1] (1 mg/ml of sweat) and in data set [1] (2 mg/ml of sweat) were −33% and −40%, respectively. The “average % of reduction in the odor intensity (T18 h, T24 h)” value is on record as −77% in data set [1] (1 mg/ml of sweat) and −89% in data set [1] (2 mg/ml of sweat). In addition, the “deodorant efficacy (reduction in the intensity and unpleasantness of the odor), in words” value in data set [1] is listed as “very large reduction”. The MIC in data set [2] (agar dilution, read-out: MIC) was 400 µg/mL (≈ 1880 µM); in data set [3] (agar dilution, read-out: MIC), 6 µg/mL (≈ 28.3 µM); in data set [4] (setting [9]), above 400 µg/mL; in data set [5] (setting [10]), 200 µg/mL (≈ 942 µM); in data set [6] (agar dilution, read-out: MIC) it was 200 µg/mL (≈ 942 µM); in data set [7] (setting [11]), 400 µg/mL (≈ 1880 µM). The “selectivity of bactericidal activity, in words” value in data set [3] (less active than Resveratrol on all strains except Corynebacterium xerosis) is “exerted selectively”.
`Oc1ccc(C=Cc2ccccc2)cc1` [4-Hydroxystilbene, 4-hydroxystilbene]: the “average % of reduction in the unpleasantness of the odor (T18 h, T24 h)” value in data set [1] (1 mg/ml of sweat) is −3%; in data set [1] (2 mg/ml of sweat) it was −10%. Moreover, the “average % of reduction in the odor intensity (T18 h, T24 h)” value in data set [1] (1 mg/ml of sweat) is recorded as −18%; in data set [1] (2 mg/ml of sweat) it was −21%. In addition, in data set [1], the “deodorant efficacy (reduction in the intensity and unpleasantness of the odor), in words” value is listed as “highly insufficient efficacy”.
As to `Oc1ccc(/C=C/c2cc(O)cc(O)c2)cc1` [Resveratrol, 3,5,4′-stilbene], the MIC in data set [2] (agar dilution, read-out: MIC) is above 115 µg/mL; in data set [3] (agar dilution, read-out: MIC), 14 µg/mL (≈ 61.3 µM); in data set [4] (setting [9]), above 115 µg/mL; in data set [5] (setting [10]), 29 µg/mL (≈ 127 µM); in data set [6] (agar dilution, read-out: MIC), 72 µg/mL (≈ 315 µM); in data set [7] (setting [11]), 72 µg/mL (≈ 315 µM).
